Experimental data reported in PMC9954146, “Anti-Leukaemic Activity of Rilpivirine Is Mediated by Aurora A Kinase Inhibition” (Cancers, 2023).

Columns and labels:
Test in all cases: Kinase panel
Assay type in all cases: biochemical
Settings in all cases: read-out: % Residual Activity
MLK4(h) = target: T1, MLK4(h) (Homo sapiens, UniProt Q5TCX8)
T1 construct: purchased Eurofins (KinaseProfiler)
Procedure, shortened: (§1)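 In this kinome-wide profiling of rilpivirine, IC50 values were obtained in radiometric format at the Km concentration of ATP for each kinase, then expressed as Ki using Cheng–Prusoff.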

SIK3(h) = target: T2, SIK3(h) (Homo sapiens, UniProt Q9Y2K2)
T2 construct: purchased Eurofins (KinaseProfiler)
Procedure, shortened: as §1

PAK3(h) = target: T3, PAK3(h) (Homo sapiens, UniProt O75914)
T3 construct: purchased Eurofins (KinaseProfiler)
Procedure, shortened: as §1

PDGFRα(D842V)(h) = target: T4, PDGFRα(D842V)(h) (Homo sapiens, UniProt P16234, D842V)
T4 construct: purchased Eurofins (KinaseProfiler)
Procedure, shortened: as §1

Syk(h) = target: T5, Syk(h) (Homo sapiens, UniProt P43405)
T5 construct: purchased Eurofins (KinaseProfiler)
Procedure, shortened: as §1

ALK4(h) = target: T6, ALK4(h) (Homo sapiens, UniProt P36896)
T6 construct: purchased Eurofins (KinaseProfiler)
Procedure, shortened: as §1

PKCη(h) = target: T7, PKCη(h) (Homo sapiens, UniProt P24723)
T7 construct: purchased Eurofins (KinaseProfiler)
Procedure, shortened: as §1

[1] = target: PI3 Kinase (p110a(E542K)/p85a)(m) (Mus musculus, UniProt P42337, E542K)
Procedure, shortened: as §1

ROCK-II(r) = target: T8, ROCK-II(r) (Rattus norvegicus, UniProt Q62868)
T8 construct: purchased Eurofins (KinaseProfiler)
Procedure, shortened: as §1

Met(Y1248C)(h) = target: T9, Met(Y1248C)(h) (Homo sapiens, UniProt P08581, Y1230C)
T9 construct: purchased Eurofins (KinaseProfiler)
Procedure, shortened: as §1

CDK9/cyclin T1(h) = target: T10, CDK9/cyclin T1(h) (Homo sapiens, UniProt P50750)
T10 construct: purchased Eurofins (KinaseProfiler)
Procedure, shortened: as §1

Src(1-530)(h) = target: T11, Src(1-530)(h) (Homo sapiens, UniProt P12931)
T11 construct: purchased Eurofins (KinaseProfiler)
Procedure, shortened: as §1

MSK1(h) = target: T12, MSK1(h) (Homo sapiens, UniProt O75582)
T12 construct: purchased Eurofins (KinaseProfiler)
Procedure, shortened: as §1

MAPK1(h) = target: T13, MAPK1(h) (Homo sapiens, UniProt P27361)
T13 construct: purchased Eurofins (KinaseProfiler)
Procedure, shortened: as §1

PDGFRα(h) = target: T14, PDGFRα(h) (Homo sapiens, UniProt P16234)
T14 construct: purchased Eurofins (KinaseProfiler)
Procedure, shortened: as §1

PrKX(h) = target: T15, PrKX(h) (Homo sapiens, UniProt P51817)
T15 construct: purchased Eurofins (KinaseProfiler)
Procedure, shortened: as §1

PASK(h) = target: T16, PASK(h) (Homo sapiens, UniProt Q96RG2)
T16 construct: purchased Eurofins (KinaseProfiler)
Procedure, shortened: as §1

MARK3(h) = target: T17, MARK3(h) (Homo sapiens, UniProt P27448)
T17 construct: purchased Eurofins (KinaseProfiler)
Procedure, shortened: as §1

NEK2(h) = target: T18, NEK2(h) (Homo sapiens, UniProt P51955)
T18 construct: purchased Eurofins (KinaseProfiler)
Procedure, shortened: as §1

AMPKα1(h) = target: T19, AMPKα1(h) (Homo sapiens, UniProt Q13131)
T19 construct: purchased Eurofins (KinaseProfiler)
Procedure, shortened: as §1

FGFR2(h) = target: T20, FGFR2(h) (Homo sapiens, UniProt P21802)
T20 construct: purchased Eurofins (KinaseProfiler)
Procedure, shortened: as §1

PKR(h) = target: T21, PKR(h) (Homo sapiens, UniProt P19525)
T21 construct: purchased Eurofins (KinaseProfiler)
Procedure, shortened: as §1

SNRK(h) = target: T22, SNRK(h) (Homo sapiens, UniProt Q9NRH2)
T22 construct: purchased Eurofins (KinaseProfiler)
Procedure, shortened: as §1

MAPK2(h) = target: T23, MAPK2(h) (Homo sapiens, UniProt P28482)
T23 construct: purchased Eurofins (KinaseProfiler)
Procedure, shortened: as §1

ALK(h) = target: T24, ALK(h) (Homo sapiens, UniProt Q9UM73)
T24 construct: purchased Eurofins (KinaseProfiler)
Procedure, shortened: as §1

CaMKK1(h) = target: T25, CaMKK1(h) (Homo sapiens, UniProt Q8N5S9)
T25 construct: purchased Eurofins (KinaseProfiler)
Procedure, shortened: as §1

CHK1(h) = target: T26, CHK1(h) (Homo sapiens, UniProt O14757)
T26 construct: purchased Eurofins (KinaseProfiler)
Procedure, shortened: as §1

IRAK4(h) = target: T27, IRAK4(h) (Homo sapiens, UniProt Q9NWZ3)
T27 construct: purchased Eurofins (KinaseProfiler)
Procedure, shortened: as §1

IR(h) = target: T28, IR(h) (Homo sapiens, UniProt P06213)
T28 construct: purchased Eurofins (KinaseProfiler)
Procedure, shortened: as §1

FGFR3(h) = target: T29, FGFR3(h) (Homo sapiens, UniProt P22607)
T29 construct: purchased Eurofins (KinaseProfiler)
Procedure, shortened: as §1

Snk(h) = target: T30, Snk(h) (Homo sapiens, UniProt Q9NYY3)
T30 construct: purchased Eurofins (KinaseProfiler)
Procedure, shortened: as §1

MAPKAP-K2(h) = target: T31, MAPKAP-K2(h) (Homo sapiens, UniProt P49137)
T31 construct: purchased Eurofins (KinaseProfiler)
Procedure, shortened: as §1

WNK3(h) = target: T32, WNK3(h) (Homo sapiens, UniProt Q9BYP7)
T32 construct: purchased Eurofins (KinaseProfiler)
Procedure, shortened: as §1

PIP5K1g(h) = PIP5K1g(h) (Homo sapiens, UniProt O60331)
Procedure, shortened: as §1

SAPK3(h) = target: T33, SAPK3(h) (Homo sapiens, UniProt P53778)
T33 construct: purchased Eurofins (KinaseProfiler)
Procedure, shortened: as §1

[2] = target: T34, PI3 Kinase (p110b/p85a)(h) (Homo sapiens, UniProt P42338)
T34 construct: purchased Eurofins (KinaseProfiler)
Procedure, shortened: as §1

TLK1(h) = target: T35, TLK1(h) (Homo sapiens, UniProt Q9UKI8)
T35 construct: purchased Eurofins (KinaseProfiler)
Procedure, shortened: as §1

Aurora-A(h) = target: T36, Aurora-A(h) (Homo sapiens, UniProt O14965)
T36 construct: purchased Eurofins (KinaseProfiler)
Procedure, shortened: as §1

T22 sequence (Q9NRH2 whole entry): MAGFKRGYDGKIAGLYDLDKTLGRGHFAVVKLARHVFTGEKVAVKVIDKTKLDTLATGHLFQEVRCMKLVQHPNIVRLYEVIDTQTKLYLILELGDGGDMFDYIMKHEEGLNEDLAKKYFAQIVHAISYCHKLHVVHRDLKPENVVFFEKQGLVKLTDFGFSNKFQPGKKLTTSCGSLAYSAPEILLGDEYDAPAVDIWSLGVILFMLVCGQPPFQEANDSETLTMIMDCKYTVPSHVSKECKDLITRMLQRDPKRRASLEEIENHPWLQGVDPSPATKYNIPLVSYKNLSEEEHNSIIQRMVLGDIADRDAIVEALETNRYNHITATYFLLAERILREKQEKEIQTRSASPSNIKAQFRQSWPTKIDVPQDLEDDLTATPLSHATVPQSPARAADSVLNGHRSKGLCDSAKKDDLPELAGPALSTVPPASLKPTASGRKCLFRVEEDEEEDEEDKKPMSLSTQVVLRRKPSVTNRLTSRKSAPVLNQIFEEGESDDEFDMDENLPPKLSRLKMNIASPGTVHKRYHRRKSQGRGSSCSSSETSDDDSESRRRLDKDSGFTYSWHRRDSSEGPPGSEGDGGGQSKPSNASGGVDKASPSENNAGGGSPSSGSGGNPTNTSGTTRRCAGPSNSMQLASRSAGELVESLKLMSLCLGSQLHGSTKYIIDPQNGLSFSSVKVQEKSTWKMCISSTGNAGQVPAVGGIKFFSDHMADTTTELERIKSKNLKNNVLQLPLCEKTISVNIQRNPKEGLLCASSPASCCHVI
T18 sequence (P51955 whole entry): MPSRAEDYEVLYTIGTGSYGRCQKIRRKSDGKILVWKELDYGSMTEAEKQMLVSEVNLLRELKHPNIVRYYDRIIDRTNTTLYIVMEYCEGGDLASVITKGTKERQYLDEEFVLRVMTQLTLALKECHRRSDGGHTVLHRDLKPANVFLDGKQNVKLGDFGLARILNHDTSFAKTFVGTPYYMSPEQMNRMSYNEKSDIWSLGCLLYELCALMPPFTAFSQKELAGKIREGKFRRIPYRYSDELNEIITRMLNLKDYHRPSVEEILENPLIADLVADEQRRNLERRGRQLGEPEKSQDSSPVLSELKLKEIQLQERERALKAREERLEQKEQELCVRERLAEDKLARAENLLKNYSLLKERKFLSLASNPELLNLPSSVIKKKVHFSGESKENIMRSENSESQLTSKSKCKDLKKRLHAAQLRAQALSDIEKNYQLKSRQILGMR
Sequence of PI3 Kinase (p110a(E542K)/p85a)(m) (P42337 whole entry E542K): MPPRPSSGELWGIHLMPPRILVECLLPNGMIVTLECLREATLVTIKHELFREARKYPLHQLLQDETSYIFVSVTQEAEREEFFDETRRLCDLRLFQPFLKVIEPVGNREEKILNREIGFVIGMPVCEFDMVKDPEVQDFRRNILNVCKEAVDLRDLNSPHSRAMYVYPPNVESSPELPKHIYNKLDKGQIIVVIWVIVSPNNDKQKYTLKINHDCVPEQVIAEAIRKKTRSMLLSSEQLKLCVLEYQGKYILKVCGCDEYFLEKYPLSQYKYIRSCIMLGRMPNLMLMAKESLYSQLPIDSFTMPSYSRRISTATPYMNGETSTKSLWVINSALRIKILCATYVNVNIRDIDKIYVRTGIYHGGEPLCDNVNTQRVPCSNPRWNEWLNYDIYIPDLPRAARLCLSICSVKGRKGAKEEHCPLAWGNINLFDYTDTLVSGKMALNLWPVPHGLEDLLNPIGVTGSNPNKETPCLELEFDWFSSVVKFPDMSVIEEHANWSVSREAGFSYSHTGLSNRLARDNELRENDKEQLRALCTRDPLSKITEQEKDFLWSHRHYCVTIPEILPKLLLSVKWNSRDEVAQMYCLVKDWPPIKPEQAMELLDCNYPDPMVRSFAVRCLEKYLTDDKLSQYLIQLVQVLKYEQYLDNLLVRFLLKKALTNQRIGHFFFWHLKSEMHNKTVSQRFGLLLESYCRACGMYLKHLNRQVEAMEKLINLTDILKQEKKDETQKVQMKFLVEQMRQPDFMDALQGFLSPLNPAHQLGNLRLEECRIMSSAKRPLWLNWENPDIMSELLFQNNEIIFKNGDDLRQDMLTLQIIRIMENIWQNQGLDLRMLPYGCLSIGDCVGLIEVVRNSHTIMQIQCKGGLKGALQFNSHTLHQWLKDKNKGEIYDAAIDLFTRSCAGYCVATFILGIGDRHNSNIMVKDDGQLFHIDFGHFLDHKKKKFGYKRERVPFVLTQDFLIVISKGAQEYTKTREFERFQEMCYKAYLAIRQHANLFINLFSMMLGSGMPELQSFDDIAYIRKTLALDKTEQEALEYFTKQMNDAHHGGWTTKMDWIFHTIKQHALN
Sequence of PI3 Kinase (p110a(E542K)/p85a)(m) (P26450 whole entry partner): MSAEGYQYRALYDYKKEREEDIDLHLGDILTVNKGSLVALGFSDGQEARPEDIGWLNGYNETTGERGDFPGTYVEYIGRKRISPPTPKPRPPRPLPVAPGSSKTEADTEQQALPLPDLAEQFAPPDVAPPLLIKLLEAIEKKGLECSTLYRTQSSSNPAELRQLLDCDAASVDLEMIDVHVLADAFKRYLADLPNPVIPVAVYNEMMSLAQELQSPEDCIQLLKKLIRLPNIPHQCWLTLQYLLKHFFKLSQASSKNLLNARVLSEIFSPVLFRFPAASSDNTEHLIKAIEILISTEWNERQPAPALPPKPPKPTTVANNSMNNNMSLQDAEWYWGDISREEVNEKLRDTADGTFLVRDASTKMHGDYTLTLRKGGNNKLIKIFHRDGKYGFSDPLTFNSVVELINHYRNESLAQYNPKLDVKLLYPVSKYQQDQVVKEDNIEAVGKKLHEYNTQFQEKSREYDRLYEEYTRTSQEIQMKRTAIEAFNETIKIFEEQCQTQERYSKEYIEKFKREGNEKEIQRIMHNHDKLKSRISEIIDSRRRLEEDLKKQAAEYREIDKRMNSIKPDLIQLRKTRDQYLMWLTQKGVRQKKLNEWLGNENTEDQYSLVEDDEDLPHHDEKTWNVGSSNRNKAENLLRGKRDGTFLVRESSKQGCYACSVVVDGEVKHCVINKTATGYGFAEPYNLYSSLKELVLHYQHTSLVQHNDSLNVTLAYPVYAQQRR
T13 sequence (P27361 whole entry): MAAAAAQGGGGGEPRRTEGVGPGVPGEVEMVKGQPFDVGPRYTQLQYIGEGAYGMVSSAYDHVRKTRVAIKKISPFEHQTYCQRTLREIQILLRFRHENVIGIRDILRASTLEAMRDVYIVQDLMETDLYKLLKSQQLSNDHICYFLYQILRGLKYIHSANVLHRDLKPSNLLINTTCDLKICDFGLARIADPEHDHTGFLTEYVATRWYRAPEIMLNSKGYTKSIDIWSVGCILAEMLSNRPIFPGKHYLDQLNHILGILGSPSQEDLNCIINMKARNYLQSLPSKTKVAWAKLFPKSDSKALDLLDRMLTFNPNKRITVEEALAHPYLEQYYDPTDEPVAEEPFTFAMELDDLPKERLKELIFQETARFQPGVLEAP
T31 sequence (P49137 whole entry): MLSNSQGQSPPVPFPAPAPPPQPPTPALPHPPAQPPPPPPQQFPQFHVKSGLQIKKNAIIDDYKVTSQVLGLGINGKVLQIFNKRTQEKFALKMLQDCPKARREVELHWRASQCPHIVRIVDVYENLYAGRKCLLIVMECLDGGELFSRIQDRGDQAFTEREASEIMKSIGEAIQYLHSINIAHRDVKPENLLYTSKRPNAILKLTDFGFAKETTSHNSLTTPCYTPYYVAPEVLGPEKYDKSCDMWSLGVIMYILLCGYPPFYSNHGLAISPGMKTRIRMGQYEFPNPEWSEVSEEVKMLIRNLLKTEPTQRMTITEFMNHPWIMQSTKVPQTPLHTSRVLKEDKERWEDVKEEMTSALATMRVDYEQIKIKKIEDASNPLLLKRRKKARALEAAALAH
T14 sequence (P16234 24-1089): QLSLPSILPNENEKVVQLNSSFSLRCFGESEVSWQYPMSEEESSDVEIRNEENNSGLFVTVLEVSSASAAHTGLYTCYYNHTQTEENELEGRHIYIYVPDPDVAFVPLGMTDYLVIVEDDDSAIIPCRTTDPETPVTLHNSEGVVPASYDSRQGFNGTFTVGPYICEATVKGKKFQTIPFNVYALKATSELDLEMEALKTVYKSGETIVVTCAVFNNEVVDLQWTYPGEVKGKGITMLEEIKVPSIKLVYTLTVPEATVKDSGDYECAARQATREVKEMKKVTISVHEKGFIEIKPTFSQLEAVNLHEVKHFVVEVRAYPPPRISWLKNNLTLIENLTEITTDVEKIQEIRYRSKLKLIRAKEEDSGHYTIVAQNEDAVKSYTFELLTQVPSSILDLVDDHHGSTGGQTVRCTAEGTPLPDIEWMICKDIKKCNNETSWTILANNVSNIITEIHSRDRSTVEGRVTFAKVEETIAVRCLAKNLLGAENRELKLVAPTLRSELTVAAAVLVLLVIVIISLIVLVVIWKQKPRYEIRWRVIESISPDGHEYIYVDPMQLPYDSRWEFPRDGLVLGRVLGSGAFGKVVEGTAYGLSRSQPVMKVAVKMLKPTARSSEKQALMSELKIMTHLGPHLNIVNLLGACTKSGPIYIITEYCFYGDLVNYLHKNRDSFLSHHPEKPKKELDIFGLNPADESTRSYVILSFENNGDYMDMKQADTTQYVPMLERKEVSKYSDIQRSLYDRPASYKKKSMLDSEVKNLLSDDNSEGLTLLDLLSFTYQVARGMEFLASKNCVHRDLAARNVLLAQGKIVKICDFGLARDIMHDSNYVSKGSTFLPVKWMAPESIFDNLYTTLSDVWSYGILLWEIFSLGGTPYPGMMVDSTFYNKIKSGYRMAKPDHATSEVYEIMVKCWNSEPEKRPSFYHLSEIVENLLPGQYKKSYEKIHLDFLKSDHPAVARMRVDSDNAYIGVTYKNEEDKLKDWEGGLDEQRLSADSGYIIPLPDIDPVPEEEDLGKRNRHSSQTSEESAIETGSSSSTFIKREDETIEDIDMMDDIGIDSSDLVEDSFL
T4 sequence (P16234 24-1089 D842V): as the sequence (P16234 24-1089) above, with D819V counted along it

`Cc1cc(/C=C/C#N)cc(C)c1Nc1ccnc(Nc2ccc(C#N)cc2)n1` [rilpivirine, (E)-4-((4-((4-(2-cyanoethenyl)-2,6-dimethylphenyl)amino)pyrimidin-2-yl)amino)benzonitrile] showed a remaining activity at 1 µM (MLK4(h)) of 95%, a remaining activity at 1 µM (SIK3(h)) of 89% and a remaining activity at 1 µM (PAK3(h)) of 86%. It also gave a remaining activity at 1 µM (PDGFRα(D842V)(h)) of 79%, a remaining activity at 1 µM (Syk(h)) of 79% and a remaining activity at 1 µM (ALK4(h)) of 79%. For the same molecule, the remaining activity at 1 µM (PKCη(h)) was 103%, the remaining activity at 1 µM [1] was 101% and the remaining activity at 1 µM (ROCK-II(r)) was 94%. The remaining activity at 1 µM (Met(Y1248C)(h)) was 100%, the remaining activity at 1 µM (CDK9/cyclin T1(h)) was 81% and the remaining activity at 1 µM (Src(1-530)(h)) was 31%. It also gave a remaining activity at 1 µM (MSK1(h)) of 97%, a remaining activity at 1 µM (MAPK1(h)) of 90% and a remaining activity at 1 µM (PDGFRα(h)) of 96%. For the same molecule, the remaining activity at 1 µM (PrKX(h)) was 97%, the remaining activity at 1 µM (PASK(h)) was 85% and the remaining activity at 1 µM (MARK3(h)) was 87%. For the same molecule, the remaining activity at 1 µM (NEK2(h)) was 97%, the remaining activity at 1 µM (AMPKα1(h)) was 44% and the remaining activity at 1 µM (FGFR2(h)) was 95%. The remaining activity at 1 µM (PKR(h)) was 92%, the remaining activity at 1 µM (SNRK(h)) was 104% and the remaining activity at 1 µM (MAPK2(h)) was 101%. The remaining activity at 1 µM (ALK(h)) was 80%, the remaining activity at 1 µM (CaMKK1(h)) was 90% and the remaining activity at 1 µM (CHK1(h)) was 100%. It also gave a remaining activity at 1 µM (IRAK4(h)) of 80%, a remaining activity at 1 µM (IR(h)) of 111% and a remaining activity at 1 µM (FGFR3(h)) of 98%. For the same molecule, the remaining activity at 1 µM (Snk(h)) was 98%, the remaining activity at 1 µM (MAPKAP-K2(h)) was 100% and the remaining activity at 1 µM (WNK3(h)) was 83%. It also gave a remaining activity at 1 µM (PIP5K1g(h)) of 76%, a remaining activity at 1 µM (SAPK3(h)) of 106% and a remaining activity at 1 µM [2] of 104%. It also gave a remaining activity at 1 µM (TLK1(h)) of 95% and a remaining activity at 1 µM (Aurora-A(h)) of 14%.
